Results from patent publication US12038447B2 (priority 2017, dated 2024).
Where two headings read alike, the source gives them in different places.

Legend:
[1] = test system: human serum albumin (HSA) and lysozyme (LYZ); test: Protein resistance of E0-6 rSAMs on MHA gold, IRAS amide I and ellipsometry; type: binding; settings: HSA or LYZ 1 mg/mL, pH 8, rSAM on MHA gold
[2] = pH titration of rinsed rSAM layers, ellipsometric thickness; type: physicochemical; settings: on MBA SAMs
[3] = Fluorescence recovery after photobleaching (FRAP), lateral fluidity; type: physicochemical; settings: 1 mol % FAM tagged amidine in E2 on COOH quartz
MC3T3-E1 cells = test: Cell attachment and detachment on GRGDS functionalized rSAMs; settings: for reduction in average projected cell area on MDSA versus MBA-SAMs: absence of GRGDS 3 in the layer; for average projected cell area: 5 hours
[4] = Critical micelle concentration from assembly kinetics, in situ ellipsometry; type: physicochemical; settings: pH 9 buffer
[5] = Air and rinse stability of rSAMs, rinsing and drying cycles; type: physicochemical; settings: rSAM on MHA-gold
[6] = Water solubility (qualitative); type: physicochemical
HA = settings: cited from earlier work
[7] = test system: Influenza A H5N1 (A/Anhui/2005) hemagglutinin (HA); type: binding
[8] = test system: deactivated influenza virus H5N1; type: binding, Influenza A Virus, A/Anhui/01/2005(H5N1)
[9] = 100 μM added to cells on XGRGDS3,filler2=0.25 on MBA SAMs, 30 minutes

N=C(N)c1ccc(OCCCCCCCCCCOc2ccc(CCOCCOCCO)cc2)cc1 [E2, 4-[10-(4-{2-[2-(2-Hydroxy-ethoxy)-ethoxy]-ethyl}-phenoxy)-decyloxy]-benzamidine]
reduction of protein adsorption based on amide I band intensity [1]: more than 50%
pH resistance of rinsed layers [2]: up to 6
diffusion coefficient from FRAP [3]: matching literature values of supported lipid bilayers
reduction in average projected cell area on MDSA versus MBA-SAMs (MC3T3-E1 cells): 28%

N=C(N)c1ccc(OCCCCCCCCCCOc2ccc(CCOCCOCCOCCOCCO)cc2)cc1 [E4, 4-(10-{4-[2-(2-{2-[2-(2-Hydroxy-ethoxy)-ethoxy]-ethoxy}-ethoxy)-ethyl]-phenoxy}-decyloxy)-benzamidine]
critical micelle concentration (CMC) [4]: approximately 5 μM
protein adsorption / resistance [1]: less resistant
reduction in average projected cell area (MC3T3-E1 cells; 100 μM added to cells on XGRGDS3,filler2=0.25 on MBA SAMs, 37° C., 30 minutes): 65%
cell shape after addition (MC3T3-E1 cells; [9]): dramatic transition from a spread-out cell shape to a non-adhesive round shape
surface coverage by adherent cells normalized on average projected cell area (MC3T3-E1 cells; XGRGDS3,filler2=0 on MDSA-SAMs): 12%
average projected cell area (MC3T3-E1 cells; XGRGDS3,filler2=0 on MDSA-SAMs): 1634 μm^2
reduction in average projected cell area on MDSA versus MBA-SAMs (MC3T3-E1 cells): no significant differences
cells after replacing medium with fresh medium (MC3T3-E1 cells; after 100 μM exposure, fresh medium, 37° C., 24 hrs): retain their adhesive characteristic

N=C(N)c1ccc(OCCCCCCCCCCOc2ccc(CCOCCOCCOCCOCCOCCOCCO)cc2)cc1 [E6, 4-{10-[4-(2-{2-[2-(2-{2-[2-(2-Hydroxy-ethoxy)-ethoxy]-ethoxy}-ethoxy)-ethoxy]-ethoxy}-ethyl)-phenoxy]-decyloxy}-benzamidine]
protein adsorption / resistance [1]: less resistant
decrease in layer thickness after 2 cycles of rinsing with pH 8 buffer and drying [5]: 9 Å

C=C(C(=O)CNN[C@@H](CCCNC(=N)N)C(=O)NCC(=O)N[C@@H](CC(=O)O)C(=O)N[C@@H](CO)C(=O)O)c1cn(COCCOCCc2ccc(OCCCCCCCCCCOc3ccc(C(=N)N)cc3)cc2)nn1 [GRGDS 3, (2S,5S,11S)-16-(1-((2-(4-((10-(4-carbamimidoylphenoxy)decyl)oxy)phenethoxy)ethoxy)methyl)-1H-1,2,3-triazol-4-yl)-5-(carboxymethyl)-11-(3-guanidinopropyl)-2-(hydroxymethyl)-4,7,10,15-tetraoxo-3,6,9,12,13-pentaazaheptadec-16-enoic acid]
average projected cell area (MC3T3-E1 cells; XGRGDS3,filler2=0.1 on MDSA-SAMs): 1183 μm^2
average projected cell area (MC3T3-E1 cells; XGRGDS3,filler2=0.25 on MDSA-SAMs): 1282 μm^2
coverage of adhered cells versus amount in layer (MC3T3-E1 cells; XGRGDS3=0-0.25, 5 hours): correlated with the increasing amount of GRGDS3
average projected cell area versus surface without GRGDS3 (MC3T3-E1 cells; with filler 1, XGRGDS3=0.25 on MBA SAMs): an increase in average projected cell area
average projected cell area versus GRGDS density (MC3T3-E1 cells; with filler 1 on MDSA SAMs): no distinct differences
average projected cell area versus surface without GRGDS3 (MC3T3-E1 cells; with filler 2, XGRGDS3=0.1 and 0.25 on MDSA SAMs): a decrease in average projected cell area
average projected cell area versus GRGDS density (MC3T3-E1 cells; with filler 2 on MBA SAMs): no distinct differences

N=C(N)NCCC[C@H](N)C(=O)O [L-Arginine, reference compound]
cell shape after addition (MC3T3-E1 cells; [9]): most of the cells remained the spread-out shape

Cl.N=C(N)c1ccc(OCCCCCCCCCCOc2ccc(CCO)cc2)cc1 [compound 1, Amino(4-(10-(4-(2-hydroxyethyl)phenoxy)decyloxy)phenyl)methaniminium chloride]
water solubility [6]: poorly water-soluble
water solubility ([6]; listed as E0): poorly water soluble
protein adsorption / resistance [1]: most pronounced protein adsorption

CC(=O)NC1C(O)CC(OCCc2cn(CCOCCOCCc3ccc(OCCCCCCCCCCOc4ccc(C(=N)N)cc4)cc3)nn2)(C(=O)O)OC1C(O)C(O)CO (stereo not drawn) [compound 2, 5-Acetylamino-2-[2-(1-{2-[2-(2-{4-[10-(4-carbamimidoyl-phenoxy)-decyloxy]-phenyl}-ethoxy)-ethoxy]-ethyl}-1H-[1,2,3]triazol-4-yl)-ethoxy]-4-hydroxy-6-(1,2,3-trihydroxy-propyl)-tetrahydro-pyran-2-carboxylic acid]
water solubility [6]: highly water soluble

CO[C@]1(C(=O)O)C[C@H](O)[C@@H](NC(C)=O)[C@H]([C@H](O)[C@H](O)CO)O1 [α-methyl sialoside]
Kd (HA; read-out: Kd per SA or HA monomer unit): 2000 µM

mucin
effect of preincubating HA with mucin on HA binding to rSAM-2 [7]: effectively suppressed
effect of mucin masking on virus adsorption to rSAM-2 [8]: effectively suppressed
Ki (HA; read-out: Ki of binding to HA): 2 µM
